According to patent publication US5189055A, “Phenylpyrrolic compounds used as drugs, their preparation and application” (Centre National de la Recherche Scientifique (CNRS), priority 1988, dated 1993):

What was measured:
tubulin = conditions: natural substances binding to tubulin receptor sites; cited from earlier work
Vero cells = assay: Cytotoxicity / cytostasis test on the Vero line, % inhibition of proliferation (crystal violet); assay type: cell-based, monkey; conditions: 72 hours
Procedure: (§1) The cytotoxicity studies were carried out, on the one hand on the Vero line (normal monkey kidney cell), Table I, and on the other hand on the KB line (human carcinoma of the nasopharynx), Table II, according to the following method:
(§2) The products were introduced at the time of culturing, which is maintained for 72 hours. The products are tested at 100, 80, 40, 20 and 10 μm [sic]. […] The percentage values for inhibition of cell proliferation were measured by a colorimetric method with crystal violet, relative to control cultures containing DMSO (≤1%).

KB cells [1] = assay: Cytotoxicity / cytostasis test on the KB line, % inhibition of proliferation (crystal violet); assay type: cell-based, human; conditions: for % inhibition of proliferation: KB cells, 72 hours
Procedure: as §1, §2

KB cells [2] = assay: as above; assay type: cell-based, human; conditions: 5 μm [sic], 72 hours

## COc1cc([C@@H]2c3cc4c(cc3[C@H](O)[C@H]3COC(=O)[C@H]23)OCO4)cc(OC)c1OC [podophyllotoxin]
tubulin
  inhibition of tubulin polymerization: inhibit its polymerization

## CC[C@]1(O)C[C@@H]2CN(CCc3c([nH]c4ccccc34)[C@@](C(=O)OC)(c3cc4c(cc3OC)N(C)[C@H]3[C@@](O)(C(=O)OC)[C@H](OC(C)=O)[C@]5(CC)C=CCN6CC[C@]43[C@@H]65)C2)C1 [vinblastine]
tubulin
  inhibition of tubulin polymerization: inhibit its polymerization
  spiralization of tubulin: can cause its spiralization

## Cc1c[nH]c2c(=O)[nH]c3ccccc3c12 [(4)]
Vero cells; 10 μm [sic]
  % inhibition of proliferation: 0%
Vero cells; 20 μm [sic]
  % inhibition of proliferation: 0%
Vero cells; 40 μm [sic]
  % inhibition of proliferation: 45%
Vero cells; 80 μm [sic]
  % inhibition of proliferation: 49-70%
Vero cells; 100 μm [sic]
  % inhibition of proliferation: 69-84%
KB cells [1]; 10 μm [sic]
  % inhibition of proliferation: 0%
KB cells [1]; 20 μm [sic]
  % inhibition of proliferation: 72%
KB cells [1]; 40 μm [sic]
  % inhibition of proliferation: 100%
KB cells [1]; 80 μm [sic]
  % inhibition of proliferation: 60%
KB cells [1]; 100 μm [sic]
  % inhibition of proliferation: 68%

## Cc1cn(C)c(C(=O)N(C(=O)NC2CCCCC2)C2CCCCC2)c1-c1ccccc1[N+](=O)[O-] [(10), 1,4-Dimethyl-3-(2'-nitrophenyl)pyrrole-2(N,N'-cyclohexylureidocarboxamide)]
Vero cells; 10 μm [sic]
  % inhibition of proliferation: 0%
Vero cells; 20 μm [sic]
  % inhibition of proliferation: 0%
Vero cells; 40 μm [sic]
  % inhibition of proliferation: 25%
Vero cells; 80 μm [sic]
  % inhibition of proliferation: 100%
Vero cells; 100 μm [sic]
  % inhibition of proliferation: 100%
KB cells [1]; 10 μm [sic]
  % inhibition of proliferation: 0%
KB cells [1]; 20 μm [sic]
  % inhibition of proliferation: 0%
KB cells [1]; 40 μm [sic]
  % inhibition of proliferation: 0%
KB cells [1]; 80 μm [sic]
  % inhibition of proliferation: 27%
KB cells [1]; 100 μm [sic]
  % inhibition of proliferation: 45%

## CC[C@]1(O)C[C@H]2CN(CCc3c([nH]c4ccccc34)[C@@](C(=O)OC)(c3cc4c(cc3OC)N(C=O)[C@H]3[C@@](O)(C(=O)OC)[C@H](OC(C)=O)[C@]5(CC)C=CCN6CC[C@]43[C@@H]65)C2)C1 [vincristine]
tubulin
  inhibition of tubulin polymerization: inhibit its polymerization

## CCOC(=O)c1[nH]cc(C)c1-c1ccccc1 [(1), Ethyl 4-methyl-3-phenyl-2-pyrrolecarboxylate]
Vero cells; 10 μm [sic]
  % inhibition of proliferation: 0%
Vero cells; 20 μm [sic]
  % inhibition of proliferation: 0%
Vero cells; 40 μm [sic]
  % inhibition of proliferation: 20%
Vero cells; 80 μm [sic]
  % inhibition of proliferation: 46%
Vero cells; 100 μm [sic]
  % inhibition of proliferation: 63%
KB cells [1]; 10 μm [sic]
  % inhibition of proliferation: 0%
KB cells [1]; 20 μm [sic]
  % inhibition of proliferation: 0%
KB cells [1]; 40 μm [sic]
  % inhibition of proliferation: 0%
KB cells [1]; 80 μm [sic]
  % inhibition of proliferation: 35%
KB cells [1]; 100 μm [sic]
  % inhibition of proliferation: 43%

## COC(=O)c1[nH]cc(C)c1-c1cccc([N+](=O)[O-])c1 [(2), Methyl 4-methyl-3-(3'-nitrophenyl)-2-pyrrolecarboxylate]
Vero cells; 10 μm [sic]
  % inhibition of proliferation: 0%
Vero cells; 20 μm [sic]
  % inhibition of proliferation: 3%
Vero cells; 40 μm [sic]
  % inhibition of proliferation: 38%
Vero cells; 80 μm [sic]
  % inhibition of proliferation: 75%
Vero cells; 100 μm [sic]
  % inhibition of proliferation: 77%
KB cells [1]; 10 μm [sic]
  % inhibition of proliferation: 0%
KB cells [1]; 20 μm [sic]
  % inhibition of proliferation: 0%
KB cells [1]; 40 μm [sic]
  % inhibition of proliferation: 10%
KB cells [1]; 80 μm [sic]
  % inhibition of proliferation: 50%
KB cells [1]; 100 μm [sic]
  % inhibition of proliferation: 72%

## CCOC(=O)c1[nH]cc(C)c1-c1ccccc1NC(=O)CNC(=O)OCc1ccccc1 [(6), Ethyl 3-[2'-(N-benzyloxycarbonylglycylamido)phenyl]-4-methyl-2-pyrrolecarboxylat]
Vero cells; 10 μm [sic]
  % inhibition of proliferation: 0%
Vero cells; 20 μm [sic]
  % inhibition of proliferation: 0%
Vero cells; 40 μm [sic]
  % inhibition of proliferation: 4%
Vero cells; 80 μm [sic]
  % inhibition of proliferation: 48%
Vero cells; 100 μm [sic]
  % inhibition of proliferation: 78%
KB cells [1]; 10 μm [sic]
  % inhibition of proliferation: 0%
KB cells [1]; 20 μm [sic]
  % inhibition of proliferation: 22%
KB cells [1]; 40 μm [sic]
  % inhibition of proliferation: 31%
KB cells [1]; 80 μm [sic]
  % inhibition of proliferation: 52%
KB cells [1]; 100 μm [sic]
  % inhibition of proliferation: 68%

## CCCCc1c(C)c(-c2ccccc2NC)c(CCC2OCCO2)n1C [(23), 5-Butyl-1,4-dimethyl-2-(1,4-dioxa-2-ethylcarbaldehyde)-3-[2'-(N-methylamino)phenyl]pyrrole]
KB cells [2]
  % inhibition of proliferation: 4%
Vero cells; 10 μm [sic]
  % inhibition of proliferation: 0%
Vero cells; 20 μm [sic]
  % inhibition of proliferation: 0%
Vero cells; 40 μm [sic]
  % inhibition of proliferation: 25%
Vero cells; 80 μm [sic]
  % inhibition of proliferation: 69%
Vero cells; 100 μm [sic]
  % inhibition of proliferation: 80%
KB cells [1]; 10 μm [sic]
  % inhibition of proliferation: 48%
KB cells [1]; 20 μm [sic]
  % inhibition of proliferation: 66%
KB cells [1]; 40 μm [sic]
  % inhibition of proliferation: 81%
KB cells [1]; 80 μm [sic]
  % inhibition of proliferation: 94%
KB cells [1]; 100 μm [sic]
  % inhibition of proliferation: 100%
KB cells [1]; at low concentration, KB versus Vero
  selectivity with respect to the KB line: some degree of selectivity at low concentration with respect to the KB line

## CCCCc1c(C)c(-c2ccccc2N(C)C(=O)OCc2ccccc2)c(CCC2OCCO2)n1C [(22), 5-Butyl-1,4-dimethyl-2-(1,4-dioxa-2-ethylcarbaldehyde)-3-[2'-(N-benzyloxycarbonyl-N-methylamino)phenyl]pyrrole]
Vero cells; 10 μm [sic]
  % inhibition of proliferation: 0%
Vero cells; 20 μm [sic]
  % inhibition of proliferation: 0%
Vero cells; 40 μm [sic]
  % inhibition of proliferation: 0%
Vero cells; 80 μm [sic]
  % inhibition of proliferation: 54%
Vero cells; 100 μm [sic]
  % inhibition of proliferation: 54%
KB cells [1]; 10 μm [sic]
  % inhibition of proliferation: 0%
KB cells [1]; 20 μm [sic]
  % inhibition of proliferation: 0%
KB cells [1]; 40 μm [sic]
  % inhibition of proliferation: 0%
KB cells [1]; 80 μm [sic]
  % inhibition of proliferation: 44%
KB cells [1]; 100 μm [sic]
  % inhibition of proliferation: 59%
